Measurements taken from paper PMC9666555, “Genuine selective caspase-2 inhibition with new irreversible small peptidomimetics” (Cell Death & Disease, 2022).
“And” between values parts separate entries of the source, which are not always exact repeats. Equal values may be shown once. Non-standard residues stand in square brackets, D forms with d. Residues, ends and D or L forms follow the SMILES beside them. ξ: configuration not given here. *: point of attachment. ξTHIQ1CO(6-Me) = Cc1ccc2c(c1)CCNC2C(=O)O; X1 = O=C(O)CC(N*)C(=O)COc1c(F)cccc1F; Quinaldoyl = O=C(c1ccc2ccccc2n1)*

Experiments:
recombinant human Casp2 = molecular target: T1, recombinant human Casp2 (Homo sapiens, UniProt P42575); assay: Enzyme mechanistic studies (Ki, k3, k3/KI), Caspase-2; format: biochemical
T1 sequence (P42575 170-325 limits assumed): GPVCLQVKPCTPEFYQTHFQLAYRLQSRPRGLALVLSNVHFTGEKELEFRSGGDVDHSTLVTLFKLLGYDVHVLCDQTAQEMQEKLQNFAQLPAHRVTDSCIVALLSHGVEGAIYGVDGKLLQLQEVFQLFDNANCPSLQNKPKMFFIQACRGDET
T1 sequence (P42575 348-452 limits assumed): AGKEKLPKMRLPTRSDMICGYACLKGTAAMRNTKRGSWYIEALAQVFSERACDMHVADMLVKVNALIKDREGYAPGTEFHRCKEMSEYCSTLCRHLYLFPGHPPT
Description: (§1) For reversible inhibitors, the mechanisms of inhibition were determined by varying substrate and inhibitor concentrations and using Lineweaver−Burk representations to determine the inhibition constants Ki of competitive inhibitors (Ki = [E][I]/[EI]). For suicide inhibitors, inactivation can be represented by the minimum kinetic scheme (Eq. 2), where E and I are the free forms of enzyme and inhibitor, E * I a kinetic chimera of the Michaelis complex and E − I the covalent complex (inactivated enzyme).2 E+I⇄KIE*I→k3E−I
(§2) KI and k3 are the kinetic constants characterizing the inactivation process and the k3/KI ratio is an index of the inhibitory potency. The first-order rate constant, k3, and the apparent dissociation constant, KI, were determined for Caspase-2 and -3 using the progress curve method. Briefly, the enzyme activities were measured continuously for 120 min. To determine the kinetic parameters, progress curves were obtained at several inhibition concentrations using fixed substrate concentration. The product released for each inhibitor concentration was plotted versus the time following Eq. 3 where the constant π depended on [I]’, a modified inhibitor concentration due to substrate competition, according to Eq. 4. [I]’ is defined by Eq. 5, where KM was Michaelis constant for the enzymatic hydrolysis of the appropriate fluorogenic substrate. The ratio k3/KI was obtained by fitting the experimental data to the equations (F.U., fluorescence unit):3 F.U.=∫0tvidt+F.U0−vo×e^−π×t/π+F.U.0 4 π=k3×[I]^′/KI+[I]^′ 5 [I]^′=[I]/1+S/KM
Linear and nonlinear regression fits of the experimental data to the equations were performed with KaleidaGraph software. The experimental conditions were [Caspase-2]0 = 0.2 nM, [Ac-VDVAD-AMC]0 = 25 µM and [Caspase-3]0 = 0.1 nM, [Ac-DEVD-AMC]0 = 10 µM; [I]0 = 0–100 µM.

recombinant human Casp3 = molecular target: T2, recombinant human Casp3 (Homo sapiens, UniProt P42574); assay: Enzyme mechanistic studies (Ki, k3, k3/KI), Caspase-3; format: biochemical; conditions: irreversible inhibitors, progress curve method
T2 sequence (P42574 29-175 limits assumed): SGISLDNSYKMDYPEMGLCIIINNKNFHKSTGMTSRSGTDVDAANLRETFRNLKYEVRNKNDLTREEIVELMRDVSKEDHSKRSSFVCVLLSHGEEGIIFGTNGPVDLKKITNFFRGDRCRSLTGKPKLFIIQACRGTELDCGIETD
T2 sequence (P42574 176-277 limits assumed): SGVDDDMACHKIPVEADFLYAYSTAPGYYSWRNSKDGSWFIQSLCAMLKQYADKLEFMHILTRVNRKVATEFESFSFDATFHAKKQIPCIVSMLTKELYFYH
Description: as §1, §2
Linear and nonlinear regression fits of the experimental data to the equations were performed with KaleidaGraph software.

Kallikrein-6 = molecular target: T3, Kallikrein-6 (Homo sapiens, UniProt Q92876); assay: Non-caspase enzyme assay, Kallikrein-6; format: biochemical; conditions: concentrations up to 10 µM
T3 construct: purchased R&D Systems 5164-SE-010
Description: Stock solutions were stored at −80 °C. […]
Non-caspase enzyme assays
The human pro- kallikrein-1 (pro-hK1) was activated in a buffer containing: Tris-HCl 50 mM, CaCl2 10 mM, NaCl 150 mM, Brij-35 0,05% pH 7,5. Human pro-kallikrein-6 and -8 (pro-hK6 and 8 were activated using Lysyl-endopeptidase (Wako- BioProducts®) at a 1/500 weight ratio, in a buffer containing 50 mM Tris and 0,05% Brij-35 (pH 8). Kinetics using non-caspase enzymes for selectivity studies were done according to the following conditions.
Enzymes Substrates Buffers
Cathepsine B (0.2 nM) z-RR-AMC 20 µM Acétate de sodium 0,1 M; EDTA 1mM ; […]
Cathepsine L (1.2 nM) RLR-AMC 25 µM Acétate de sodium 0,1 M; EDTA 1mM ; […]
Cathepsine D (0.1 nM) Mca-Gly-Ly s-Pro-Ile-Leu-Phe-Phe- Citrate de Sodium 0,1 M; EDTA 2 mM ; Arg-Leu-Lys(Dnp)-D-Arg-NH2 10 µM Brij-35 0,01%; pH 4 hK1 (4 nM) Boc-VPR-AMC 100µM Tris 50mM; Citrate 1M; Brij-35 0.05%; pH7 hK6 (2 nM ) Boc-QAR -AMC 100 µM Tris 50mM; Citrate 1M; Brij-35 0.05%; pH7 hK8 (1 nM) Boc-VPR-AMC 100µM Tris 50mM; Citrate 1M; Brij-35 0.05%; pH7
Thrombine (10 mU/mL) Boc-VPR-AMC 100µM Tris 50mM; Citrate 1M; Brij-35 0.05%; pH7 Plasmine (4 nM ) Boc-QAR -AMC 100µM Tris 50mM; Citrate 1M; Brij-35 0.05%; pH7 Trypsine (0.1 nM) Boc-QAR -AMC 100µM Tris 50mM; Citrate 1M; Brij-35 0.05%; pH7

[1] = molecular target: human recombinant Caspase-1 (Homo sapiens, UniProt P29466); assay: Additional enzyme kinetics, Caspase-1; conditions: concentrations up to 10 µM
Description: The human active recombinant Caspase-3 (#707-C3) was purchased from R&D Systems (Minneapolis, USA). […] Stock solutions were stored at −80 °C. […] Caspase inhibitors were solubilized in DMSO at 10 mM and stored at −80 °C.
Initial velocity (V0) was determined from the linear portion of the progress curve. The composition of the activity buffer was: 20 mM HEPES, pH 7.4; 0.1% CHAPS, 5 mM DTT, 2 mM EDTA; 800 mM sodium succinate for Caspase-2 (0.2 nM) with 25 µM of Ac-VDVAD-7-amino-3-methylcoumarin (AMC) and 20 mM HEPES, pH 7.4; 0.1% CHAPS, 5 mM DTT, 2 mM EDTA; supplemented with 1 mg/mL of stabilizing agent bovine serum albumin (BSA) for Caspase-3 (0.1 nM) with 10 μM of Ac-DEVD-AMC. Compounds (0.001–100 µM) were tested in duplicate for each inhibitor concentration to detect their inhibitory potential. Enzymes and compounds were incubated for 30 min before initiating enzymatic reaction by adding substrate. Initial rates determined in control experiments (V0) were considered as 100% of the caspase activity; initial rates that were below 100% in the presence of tested compound (Vi) were considered as inhibition. The inhibitory activity of compounds was expressed as IC50 (Inhibitor concentration giving 50% inhibition). The values of IC50 were calculated by fitting the experimental data using Mars data Analysis 2.0 and KaleidaGraph software.1 %Inhibition=1001−Vi/V0=100I0/IC50+I0

[2] = irreversible inhibitors, progress curve method

human recombinant Caspase-1, sequence (P29466 120-297 limits assumed): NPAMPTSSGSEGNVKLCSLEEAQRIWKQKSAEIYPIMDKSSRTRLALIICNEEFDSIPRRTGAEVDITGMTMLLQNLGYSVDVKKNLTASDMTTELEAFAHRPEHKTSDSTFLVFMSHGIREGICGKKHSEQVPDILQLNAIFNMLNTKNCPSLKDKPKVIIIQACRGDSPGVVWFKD
human recombinant Caspase-1, sequence (P29466 317-404 limits assumed): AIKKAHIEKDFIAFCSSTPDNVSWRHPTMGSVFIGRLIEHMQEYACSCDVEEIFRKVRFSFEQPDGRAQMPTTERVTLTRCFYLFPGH

Row | Structure (SMILES) | selectivity: inactivation rate (k3/Ki) on Casp2 as compared to Casp3 (recombinant human Casp2) | Casp2 k3 (recombinant human Casp2; [2]) | Casp2 k3/KI (recombinant human Casp2; [2]) | KI (inactivation) (recombinant human Casp2; [2]) [nM] | Casp3 k3 (recombinant human Casp3) | Casp3 k3/KI (recombinant human Casp3) | KI (inactivation) (recombinant human Casp3) [nM] | Ki (recombinant human Casp2; irreversible inhibitors, progress curve method, read-out: Casp2 KI) [nM] | effect on Kallikrein-6 (Kallikrein-6) | Ki (recombinant human Casp3; read-out: Casp3 KI) [nM] | effect on Caspase-1 [1]
1 | Cc1ccc2c(c1)CCN(C(=O)[C@@H](NC(=O)[C@H](CC(=O)O)NC(=O)[C@@H](NC(=O)c1ccc3ccccc3n1)C(C)C)C(C)C)C2C(=O)NC(CC(=O)O)C(=O)COc1c(F)cccc1F (stereo partly drawn) [LJ2, Quinolin-2-carbonyl-VDV-(methyl-isoquinolyl)-D-CH2-O(2,6F2)Ph] (Quinaldoyl-VDV[ξTHIQ1CO(6-Me)]-X1) | 25 times and ~ 25 times | 4,91 ms^−1 | ~ 1,322,875 M^−1 s^−1 and 1 322 875 M^−1 s^−1 and ~ 1,300,000 M^−1 s^−1 | 3.68 | 2,37 ms^−1 | 51,992 M^−1 s^−1 and 51 992 M^−1 s^−1 | 47 | – | – | – | –
2 | CC(C)[C@H](NC(=O)c1ccc2ccccc2n1)C(=O)N[C@@H](CC(=O)O)C(=O)N[C@H](C(=O)N1CC[C@H](CC(C)(C)C)[C@@H]1C(=O)NC(CC(=O)O)C(=O)COc1c(F)cccc1F)C(C)C (stereo partly shown) [LJ3a] | ~1000 times and 946 times | 5 ± 7 × 10^−4 ms^−1 | 1,708,996 M^−1 s^−1 | – | 0.7 ± 9 × 10^−5 ms^−1 | 1807 M⁻¹ s⁻¹ | – | 2.8 ± 0.8 | very limited or no effect | 400 ± 93.3 | very limited or no effect
